Data from patent US20160115540A1, “PRODRUGS AND DRUGS” (Biogen MA Inc., priority 2013, published 2016).
Structures can show the parent of a compound that is named as a salt.

System: liver
Assay: Transcriptional profiling on Affymetrix GeneChips, single dose, naïve mice: liver
Format: in vivo, C57BL/6 mice
Details: liver
Protocol: Treated mice were sacrificed at 2, 7, or 12 hours. Tissues (liver, spleen, kidney, jejunum, cortex, hippocampus, striatum and whole blood) were collected and analyzed by transcriptional profiling on mouse Affymetrix GeneChips.
Tissues (liver, spleen, kidney, jejunum, cortex, hippocampus, striatum and whole blood) were collected and analyzed by transcriptional profiling on mouse Affymetrix GeneChips.
Animals were exposed to CO2 and whole blood collected via cardiac puncture. Two 100 μl aliquots of whole blood were collected in 1.5 mL microcentrifuge tubes and snap frozen in liquid nitrogen. Peripheral (liver, spleen, kidney and jejunum) and CNS brain (cerebellum, hippocampus, striatum and cortex) tissues were harvested and snap frozen in liquid nitrogen, with special care taken to collect tissues of similar size and from the same location. All samples were stored at −80° C. until RNA extraction was conducted.
For RNA preparation, frozen tissues were placed in 2 mL RNAse-free 96-well blocks with 1.5 mL QIAzol Lysis Reagent (QIAgen) and a 3.2 mm stainless steel bead (BioSpec Products, Bartlesville, Okla.). Tissues were disrupted for four cycles of 45 seconds in a Mini-Beadbeater (Biospec Products). RNA was extracted in chloroform and the aqueous phase was mixed with an equal volume of 70% ethanol. Extracted RNA was applied to RNeasy 96 plates and purified by the spin method according to the manufacturer's protocol (RNeasy 96 Universal Tissue Protocol, QIAgen, Hilden Germany).
Automated sample amplifications and biotin labelings were carried out using the NuGEN Ovation RNA Amplification system V2 (Cat #3100), Ovation WB reagent (Cat #1300) and Encore Biotin module (Cat #4200) (NuGEN Technologies, Inc, San Carlos, Calif.) according to manufacturer's recommendations using an Arrayplex automated liquid handler (Beckman Coulter, Indianapolis, Ind.). Two micrograms of biotin labeled sscDNA probe were hybridized to Affymetrix GeneChip Affymetrix HT_MG-430_PM plate arrays with modified conditions as described in Allaire et al. Washing and staining of the hybridized arrays were completed as described in the GeneChip Expression analysis technical manual for HT plate arrays using the Genechip® Array Station (Affymetrix, Santa Clara, Calif.) with modifications as described in Allaire et al. The processed GeneChip® plate arrays were scanned using GeneTitan scanner (Affymetrix, Santa Clara, Calif.).
Affymetrix scans were subject to quality control (QC) measures. These tests included a visual inspection of the distribution of raw signal intensities and an assessment of RNA degradation, relative log expression (RLE), and normalized unsealed standard error (NUSE). All sample scans that passed these QC metrics were included in the analysis.
All CEL files were subjected to GC-content-based Robust Multi-array Average (GCRMA) normalization (version 2.20.0) (Irizarry R A, et al. Nucleic Acids Res 2003; 31:e15; Li C, et al. Genome Biol 2001; 2:[…]0032). Expression levels were log (base 2) transformed.
All calculations and analyses were carried out using R (version 2.11.1) and Bioconductor computational tools (Gentleman R. Springer Science+Business Media 2005).

[1] = 100 mg/kg, 7 hr, vs matched vehicle controls
[2] = 100 mg/kg, 12 hr, vs matched vehicle controls

SMILES: COC(=O)/C=C/C(=O)O [MMF, monomethyl fumarate]
- Murine Liver DEGs: Srxn1 (1419942_PM_at) (100 mg/kg, 2 hr, vs matched vehicle controls): 1.68
- Murine Liver DEGs: Akr1b8 (1448894_PM_at) [1]: 1.75
- Murine Liver DEGs: Bmp6 (1450759_PM_at) [1]: 1.65
- Murine Liver DEGs: Cda (1427357_PM_at) [1]: 1.92
- Murine Liver DEGs: Clec4n (1419627_PM_s_at) [1]: 2.40
- Murine Liver DEGs: Erc2 (1434582_PM_at) [1]: −1.95
- Murine Liver DEGs: Fzd8 (1445815_PM_at) [1]: −1.81
- Murine Liver DEGs: G6pdx (1448354_PM_at) [1]: 1.61
- Murine Liver DEGs: Irak3 (1435040_PM_at) [1]: 1.53
- Murine Liver DEGs: Marco (1449498_PM_at) [1]: 2.44
- Murine Liver DEGs: Nqo1 (1423627_PM_at) [1]: 2.20
- Murine Liver DEGs: Pir (1429001_PM_at) [1]: 1.50
- Murine Liver DEGs: Srxn1 (1419942_PM_at) [1]: 1.52
- Murine Liver DEGs: Ablim1 (1453103_PM_at) [2]: −1.51
- Murine Liver DEGs: Atp6v0d2 (1444176_PM_at) [2]: 1.84
- Murine Liver DEGs: Car3 (1460256_PM_at) [2]: −1.57
- Murine Liver DEGs: Ccnf (1443807_PM_x_at) [2]: 1.57
- Murine Liver DEGs: Clmn (1439117_PM_at) [2]: −1.54
- Murine Liver DEGs: Ctla2a (1448471_PM_a_at) [2]: 1.63
- Murine Liver DEGs: Dnajc12 (1417441_PM_at) [2]: 2.53
- Murine Liver DEGs: Fndc3b (1433833_PM_at) [2]: 1.66
- Murine Liver DEGs: Gadd45b (1450971_PM_at) [2]: 1.50
- Murine Liver DEGs: Gm3579 (1431214_PM_at) [2]: 2.74
- Murine Liver DEGs: Hyou1 (1423290_PM_at) [2]: 1.82
- Murine Liver DEGs: Lrrc59 (1416235_PM_at) [2]: 1.65
- Murine Liver DEGs: Nme6 (1448574_PM_at) [2]: 1.57
- Murine Liver DEGs: Ppapdc1b (1428154_PM_s_at) [2]: 1.87
- Murine Liver DEGs: Ppm1k (1441988_PM_at) [2]: −1.56
- Murine Liver DEGs: Prtn3 (1419669_PM_at) [2]: 4.46
- Abcc1 (probe set 1452233_PM_at) differential expression (2 hr): 1.86
- Akr1b8 (probe set 1448894_PM_at) differential expression (2 hr): 2.27
- Ampd3 (probe set 1422573_PM_at) differential expression (2 hr): 1.70
- Caprin1 (probe set 1448348_PM_at) differential expression (2 hr): −1.56
- Clec4d (probe set 1420804_PM_s_at) differential expression (2 hr): 2.05
- Cmah (probe set 1447019_PM_at) differential expression (2 hr): −1.55
- Csnk2a1 (probe set 1419038_PM_a_at) differential expression (2 hr): −1.62
- Figf (probe set 1438953_PM_at) differential expression (2 hr): 2.25
- Fxr1 (probe set 1452247_PM_at) differential expression (2 hr): −1.53
- Gclc (probe set 1424296_PM_at) differential expression (2 hr): 1.72
- Hmox1 (probe set 1448239_PM_at) differential expression (2 hr): 2.41
- Meis2 (probe set 1440091_PM_at) differential expression (2 hr): −1.67
- Mkln1 (probe set 1416734_PM_at) differential expression (2 hr): −1.69
- Pgd (probe set 1436771_PM_x_at) differential expression (2 hr): 1.61
- Ppfibp2 (probe set 1417801_PM_a_at) differential expression (2 hr): 2.55
- Prpf38b (probe set 1455016_PM_at) differential expression (2 hr): −1.53
- Ptprb (probe set 1453908_PM_at) differential expression (2 hr): −1.76
- Ptprg (probe set 1456070_PM_at) differential expression (2 hr): −1.85
- Srxn1 (probe set 1419942_PM_at) differential expression (2 hr): 1.68
- Akr1b8 (probe set 1448894_PM_at) differential expression (7 hr): 1.75
- Bmp6 (probe set 1450759_PM_at) differential expression (7 hr): 1.65
- Cda (probe set 1427357_PM_at) differential expression (7 hr): 1.92
- Clec4n (probe set 1419627_PM_s_at) differential expression (7 hr): 2.40
- Erc2 (probe set 1434582_PM_at) differential expression (7 hr): −1.95
- Fzd8 (probe set 1445815_PM_at) differential expression (7 hr): −1.81
- G6pdx (probe set 1448354_PM_at) differential expression (7 hr): 1.61
- Irak3 (probe set 1435040_PM_at) differential expression (7 hr): 1.53
- Marco (probe set 1449498_PM_at) differential expression (7 hr): 2.44
- Nqo1 (probe set 1423627_PM_at) differential expression (7 hr): 2.20
- Pir (probe set 1429001_PM_at) differential expression (7 hr): 1.50
- Srxn1 (probe set 1419942_PM_at) differential expression (7 hr): 1.52
- Ablim1 (probe set 1453103_PM_at) differential expression (12 hr): −1.51
- Atp6v0d2 (probe set 1444176_PM_at) differential expression (12 hr): 1.84
- Car3 (probe set 1460256_PM_at) differential expression (12 hr): −1.57
- Ccnf (probe set 1443807_PM_x_at) differential expression (12 hr): 1.57
- Clmn (probe set 1439117_PM_at) differential expression (12 hr): −1.54
- Ctla2a (probe set 1448471_PM_a_at) differential expression (12 hr): 1.63
- Dnajc12 (probe set 1417441_PM_at) differential expression (12 hr): 2.53
- Fndc3b (probe set 1433833_PM_at) differential expression (12 hr): 1.66
- Gadd45b (probe set 1450971_PM_at) differential expression (12 hr): 1.50
- Gm3579 (probe set 1431214_PM_at) differential expression (12 hr): 2.74
- Hyou1 (probe set 1423290_PM_at) differential expression (12 hr): 1.82
- Lrrc59 (probe set 1416235_PM_at) differential expression (12 hr): 1.65
- Nme6 (probe set 1448574_PM_at) differential expression (12 hr): 1.57
- Ppapdc1b (probe set 1428154_PM_s_at) differential expression (12 hr): 1.87
- Ppm1k (probe set 1441988_PM_at) differential expression (12 hr): −1.56
- Prtn3 (probe set 1419669_PM_at) differential expression (12 hr): 4.46
